Measurements from PubChem BioAssay AID1918948 (Molecular Pharmacology Branch, DTP, NCI, 2023).

System: K-562 leukemia growth, % test/control
Assay: Anticancer human tumor K-562 cell line growth inhibition;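 note: spheroids exposed to compounds for 7 days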;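 for viability, T/C: 100% = DMSO vehicle wells and lower values mean fewer viable cells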
Conditions: spheroids with HUVEC and MSC; for IC50: curve of first compound; for viability, T/C: stronger effect = lower value
Summary of the method: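 Drug combinations with the LSD1 inhibitor iadademstat tested on tumor cells co-cultured as spheroids with endothelial cells and mesenchymal stem cells. Concentrations descended in half-log increments from clinical Cmax or 10 microM.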

[1] = second compound 0.1 µM, first compound 0.0316 µM
[2] = second compound 0.1 µM, first compound 0.1 µM
[3] = second compound 0.1 µM, first compound 0.316 µM
[4] = second compound 0.1 µM, first compound 1 µM
[5] = second compound 0.1 µM, first compound 3.16 µM
[6] = second compound 0.1 µM, first compound 10 µM
[7] = second compound 0.316 µM, first compound 0.0316 µM
[8] = second compound 0.316 µM, first compound 0.1 µM
[9] = second compound 0.316 µM, first compound 0.316 µM
[10] = second compound 0.316 µM, first compound 1 µM
[11] = second compound 0.316 µM, first compound 3.16 µM
[12] = second compound 0.316 µM, first compound 10 µM
[13] = second compound 1 µM, first compound 0.0316 µM
[14] = second compound 1 µM, first compound 0.1 µM
[15] = second compound 1 µM, first compound 0.316 µM
[16] = second compound 1 µM, first compound 1 µM
[17] = second compound 1 µM, first compound 3.16 µM
[18] = second compound 1 µM, first compound 10 µM
[19] = second compound 3.16 µM, first compound 0.0316 µM
[20] = second compound 3.16 µM, first compound 0.1 µM
[21] = second compound 3.16 µM, first compound 0.316 µM
[22] = second compound 3.16 µM, first compound 1 µM
[23] = second compound 3.16 µM, first compound 3.16 µM
[24] = second compound 3.16 µM, first compound 10 µM
[25] = second compound 10 µM, first compound 0.0316 µM
[26] = second compound 10 µM, first compound 0.1 µM
[27] = second compound 10 µM, first compound 0.316 µM
[28] = second compound 10 µM, first compound 1 µM
[29] = second compound 10 µM, first compound 3.16 µM
[30] = second compound 10 µM, first compound 10 µM
[31] = second compound 0.1 µM, first compound 0.00316 µM
[32] = second compound 0.1 µM, first compound 0.01 µM
[33] = second compound 0.316 µM, first compound 0.00316 µM
[34] = second compound 0.316 µM, first compound 0.01 µM
[35] = second compound 1 µM, first compound 0.00316 µM
[36] = second compound 1 µM, first compound 0.01 µM
[37] = second compound 3.16 µM, first compound 0.00316 µM
[38] = second compound 3.16 µM, first compound 0.01 µM
[39] = second compound 10 µM, first compound 0.00316 µM
[40] = second compound 10 µM, first compound 0.01 µM

## CC(C)c1c(-c2ccccc2)nc2c(C#N)c[nH]n2c1=O + NC1CC1c1ccc(-c2cccc(O)c2)cc1
Second compound 0.1 µM
  IC50: > 10000 nM
Second compound 0.316 µM
  IC50: > 10000 nM
Second compound 1 µM
  IC50: > 10000 nM
Second compound 3.16 µM
  IC50: > 10000 nM
Second compound 10 µM
  IC50: > 10000 nM
[1]
  viability, T/C: 105%
[2]
  viability, T/C: 108%
[3]
  viability, T/C: 102%
[4]
  viability, T/C: 107%
[5]
  viability, T/C: 111%
[6]
  viability, T/C: 106%
[7]
  viability, T/C: 102%
[8]
  viability, T/C: 103%
[9]
  viability, T/C: 102%
[10]
  viability, T/C: 105%
[11]
  viability, T/C: 106%
[12]
  viability, T/C: 98.9%
[13]
  viability, T/C: 97.8%
[14]
  viability, T/C: 103%
[15]
  viability, T/C: 95.5%
[16]
  viability, T/C: 101%
[17]
  viability, T/C: 99.4%
[18]
  viability, T/C: 96.4%
[19]
  viability, T/C: 102%
[20]
  viability, T/C: 97.7%
[21]
  viability, T/C: 100%
[22]
  viability, T/C: 97.2%
[23]
  viability, T/C: 99.2%
[24]
  viability, T/C: 95.9%
[25]
  viability, T/C: 99.4%
[26]
  viability, T/C: 96.1%
[27]
  viability, T/C: 96.5%
[28]
  viability, T/C: 98.3%
[29]
  viability, T/C: 98.3%
[30]
  viability, T/C: 92%

## CC1COCCN1c1cc(-c2ccnn2C)c2ccnc(-c3ccn[nH]3)c2n1 (stereo not given) + NC1CC1c1ccc(-c2cccc(O)c2)cc1
Second compound 0.1 µM
  IC50: < 3.16 nM
Second compound 0.316 µM
  IC50: < 3.16 nM
Second compound 1 µM
  IC50: < 3.16 nM
Second compound 3.16 µM
  IC50: < 3.16 nM
Second compound 10 µM
  IC50: < 3.16 nM
[31]
  viability, T/C: 28.6%
[32]
  viability, T/C: 16.1%
[1]
  viability, T/C: 2.71%
[2]
  viability, T/C: 1.86%
[3]
  viability, T/C: 2.44%
[4]
  viability, T/C: 2.27%
[33]
  viability, T/C: 24.4%
[34]
  viability, T/C: 10.3%
[7]
  viability, T/C: 2.23%
[8]
  viability, T/C: 1.78%
[9]
  viability, T/C: 1.8%
[10]
  viability, T/C: 1.5%
[35]
  viability, T/C: 16.4%
[36]
  viability, T/C: 7.71%
[13]
  viability, T/C: 2.17%
[14]
  viability, T/C: 1.57%
[15]
  viability, T/C: 1.71%
[16]
  viability, T/C: 1.4%
[37]
  viability, T/C: 10.6%
[38]
  viability, T/C: 5.99%
[19]
  viability, T/C: 2.11%
[20]
  viability, T/C: 1.71%
[21]
  viability, T/C: 1.83%
[22]
  viability, T/C: 1.4%
[39]
  viability, T/C: 6.46%
[40]
  viability, T/C: 4.59%
[25]
  viability, T/C: 2.33%
[26]
  viability, T/C: 1.51%
[27]
  viability, T/C: 1.64%
[28]
  viability, T/C: 1.74%

## COc1ccc([C@@H](O)c2cc(-c3ncnc4cc(N5CCOCC5)ccc34)c(F)cc2Cl)nn1 + NC1CC1c1ccc(-c2cccc(O)c2)cc1
Second compound 0.1 µM
  IC50: 7900 nM
Second compound 0.316 µM
  IC50: 7530 nM
Second compound 1 µM
  IC50: 6490 nM
Second compound 3.16 µM
  IC50: 4840 nM
Second compound 10 µM
  IC50: 1160 nM
[1]
  viability, T/C: 111%
[2]
  viability, T/C: 107%
[3]
  viability, T/C: 106%
[4]
  viability, T/C: 106%
[5]
  viability, T/C: 93.1%
[6]
  viability, T/C: 38.8%
[7]
  viability, T/C: 104%
[8]
  viability, T/C: 107%
[9]
  viability, T/C: 101%
[10]
  viability, T/C: 98.6%
[11]
  viability, T/C: 85.4%
[12]
  viability, T/C: 38.2%
[13]
  viability, T/C: 99.1%
[14]
  viability, T/C: 98.8%
[15]
  viability, T/C: 99.5%
[16]
  viability, T/C: 98.3%
[17]
  viability, T/C: 77%
[18]
  viability, T/C: 33.8%
[19]
  viability, T/C: 103%
[20]
  viability, T/C: 99.6%
[21]
  viability, T/C: 94.2%
[22]
  viability, T/C: 83.5%
[23]
  viability, T/C: 59.7%
[24]
  viability, T/C: 32.7%
[25]
  viability, T/C: 96.6%
[26]
  viability, T/C: 96.9%
[27]
  viability, T/C: 66.7%
[28]
  viability, T/C: 52.9%
[29]
  viability, T/C: 38.9%
[30]
  viability, T/C: 24.6%

## O=C(C=Cn1cnc(-c2cc(C(F)(F)F)cc(C(F)(F)F)c2)n1)NNc1cnccn1 + NC1CC1c1ccc(-c2cccc(O)c2)cc1
Second compound 0.1 µM
  IC50: 115 nM
Second compound 0.316 µM
  IC50: 76.5 nM
Second compound 1 µM
  IC50: 67.6 nM
Second compound 3.16 µM
  IC50: 66.7 nM
Second compound 10 µM
  IC50: 50.2 nM
[31]
  viability, T/C: 106%
[32]
  viability, T/C: 103%
[1]
  viability, T/C: 93.5%
[2]
  viability, T/C: 56.2%
[3]
  viability, T/C: 9.94%
[4]
  viability, T/C: 1.19%
[33]
  viability, T/C: 106%
[34]
  viability, T/C: 103%
[7]
  viability, T/C: 83.1%
[8]
  viability, T/C: 40.1%
[9]
  viability, T/C: 9.06%
[10]
  viability, T/C: 1.23%
[35]
  viability, T/C: 102%
[36]
  viability, T/C: 96.4%
[13]
  viability, T/C: 80.7%
[14]
  viability, T/C: 34%
[15]
  viability, T/C: 8.67%
[16]
  viability, T/C: 1.78%
[37]
  viability, T/C: 97%
[38]
  viability, T/C: 94.9%
[19]
  viability, T/C: 73.4%
[20]
  viability, T/C: 37.6%
[21]
  viability, T/C: 8.04%
[22]
  viability, T/C: 1.27%
[39]
  viability, T/C: 91.4%
[40]
  viability, T/C: 91.3%
[25]
  viability, T/C: 59.8%
[26]
  viability, T/C: 32.7%
[27]
  viability, T/C: 6.57%
[28]
  viability, T/C: 2.98%
